The text below walks through data of ChEMBL document CHEMBL5370565, “Inhibition of Cysteine Proteases via Thiol-Michael Addition Explains the Anti-SARS-CoV-2 and Bioactive Properties of Arteannuin B” (J Nat Prod, 2023).

The test system of the experiment is SARS-CoV-2. Kind of experiment: Antiviral activity against SARS-CoV-2 nCoV-2019BetaCoV/Wuhan/WIV04/2019 infected in African green monkey Vero E6 cells assessed as reduction in viral yield preincubated with cells for 1 hrs followed by viral infection for 1 hrs with subsequent replacement of fresh media containing compound and measured 24 hrs post infection by qRT-PCR analysis. It counts as functional, organism-based. As to conditions: Severe acute respiratory syndrome coronavirus 2, nCoV-2019BetaCoV/Wuhan/WIV04/2019, Vero C1008. In general terms: Quantitative PCR measures a nucleic acid by following its amplification.

In the case of `C=C1C(=O)O[C@@]23C1CC[C@@H](C)[C@@H]2CC[C@@]1(C)O[C@@H]31` (stereo partly specified), the EC50 was 10.3 µM.

As usually defined, the EC50 is the concentration needed to bring the measured effect to its halfway point.
